24 molecules from patent US20100305174A1, “Novel Heterocyclic Derivatives” (ORCHID RESEARCH LABORATORIES LIMITED, priority 2005, published 2010) can be followed below.

One experiment concerns IL-1β. Briefly: IL-1β inhibition in LPS-challenged human PBMC. Particulars: for inhibition at 1 µM / inhibition at 10 µM: Homo sapiens, PBMC, LPS 100 ng/mL, 20 hours, read-out: % Inhibition IL1beta. It counts as cell-based. How it is done: (§1) Human PBMC cells were cultured and incubated with compounds listed in table-4 at 1 and 10 μM concentrations. Cells (1×10^6/mL) were challenged with lipopolysaccharides (LPS) at a concentration of (100 ng/mL) for 20 hours. Cell supernatant was analyzed for the presence of TNF-α, IL-1β and IL-6 cytokines by antibody directed enzyme-linked immunoassay.

The next experiment relates to TNF-α. Briefly: TNF-α inhibition in LPS-challenged human PBMC. Type of experiment: cell-based. The settings on record: for inhibition at 1 µM / inhibition at 10 µM: Homo sapiens, PBMC, LPS 100 ng/mL, 20 hours, read-out: % Inhibition TNF alpha. The protocol:
as §1

Another experiment deals with IL-6. Kind of experiment: IL-6 inhibition in LPS-challenged human PBMC. It counts as cell-based. Particulars: for inhibition at 1 µM / inhibition at 10 µM: Homo sapiens, PBMC, LPS 100 ng/mL, 20 hours. The protocol:
as §1

For a further experiment, the target named is T1, DPP IV (Homo sapiens, UniProt P27487).
T1 construct: using human plasma as a source of DPP IV; from tissue; host or cells: human plasma
Kind of experiment: DPP IV assay (human plasma as source, H-gly-pro AMC substrate). Particulars: compared to vehicle control. It counts as biochemical. How it is done:
DPP IV assay is carried by using human plasma as a source of DPP IV. The compounds were incubated at a concentration of 1 and 10 μM in assay buffer containing DPP IV enzyme. The compounds were incubated for 1 hr and then the substrate H-gly-pro AMC was added and further incubated for 20 min and then the reaction was stopped on addition of 25% glacial acetic acid. The plates were read in a spectrofluorimeter to get RFU on setting excitation wavelength of 360 nm and emission wavelength of 460 nm. Percentage inhibition is calculated as compared to vehicle control.

The subject of experiment [1] is streptozotocin induced diabetic mice. Briefly: Antidiabetic activity in streptozotocin induced diabetic mice. Also noted: key to % Reduction Cholesterol / % Reduction Triglycerides / % Reduction Glucose: NR=No Reduction. It counts as in vivo, Swiss albino mice. Particulars: 50 mg/kg oral, 7 days, plasma, compared to control group; for inhibition in vivo at 50 mg/kg: Mus musculus, 168 h. The protocol:
Swiss albino mice of either sex were used in the study at the age of 10 weeks. Diabetes was induced in animals by injecting streptozotocin by i.p. route at a dose of 200 mg/kg body weight. 48 hours after streptozotocin administration, the animals were kept for fasting for 6 hours and blood was collected and plasma separated and glucose was estimated. Animals showing greater than 200 mg/dl glucose levels were considered as diabetic and these animals were randomly distributed into various groups. The compounds listed in the table 3 were administered at a dose of 50 mg/kg body weight by oral route for 7 days. Later animals were fasted for 6 hours and blood was collected and plasma separated. Biochemical estimations like glucose, cholesterol and triglycerides were carried out using the plasma. The effect of compounds mentioned in the table was expressed in terms of percentage reduction in biochemical values as compared to control group.

[2] abbreviates: read-out: % Reduction Triglycerides.
The mark [3] stands for this setting: at tested concentrations, statement in words.

Like-named read-outs stand apart in the source and are kept apart here.

T1 sequence (P27487 39-766 limits assumed): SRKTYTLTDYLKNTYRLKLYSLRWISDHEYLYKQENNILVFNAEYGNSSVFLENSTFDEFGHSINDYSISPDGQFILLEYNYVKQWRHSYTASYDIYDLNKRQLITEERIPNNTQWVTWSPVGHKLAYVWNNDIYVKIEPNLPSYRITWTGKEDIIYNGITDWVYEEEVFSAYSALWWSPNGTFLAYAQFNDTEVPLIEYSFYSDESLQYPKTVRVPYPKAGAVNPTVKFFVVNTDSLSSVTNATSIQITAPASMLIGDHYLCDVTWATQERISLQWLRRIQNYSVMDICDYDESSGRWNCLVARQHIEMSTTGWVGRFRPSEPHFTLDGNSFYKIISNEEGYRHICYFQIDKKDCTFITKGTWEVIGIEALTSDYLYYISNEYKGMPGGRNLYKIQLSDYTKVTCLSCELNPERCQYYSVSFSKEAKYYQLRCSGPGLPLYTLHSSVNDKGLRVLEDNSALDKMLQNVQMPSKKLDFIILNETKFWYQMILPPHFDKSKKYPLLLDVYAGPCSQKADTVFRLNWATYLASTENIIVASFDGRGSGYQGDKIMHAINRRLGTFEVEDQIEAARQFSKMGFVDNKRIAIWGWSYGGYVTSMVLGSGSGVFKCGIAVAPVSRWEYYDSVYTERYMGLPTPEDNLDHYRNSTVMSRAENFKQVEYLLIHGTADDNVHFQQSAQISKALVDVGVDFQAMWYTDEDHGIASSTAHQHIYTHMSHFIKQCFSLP

Broadly, the inhibition is the drop in the measured response relative to a control, in per cent. For the molecule `CN1C(=O)OCC1Cc1ccc(Oc2ccc(CC3C(=O)Nc4ccccc43)cc2)cc1` (centres unmarked) [Example 64], in the experiment on IL-1β, the inhibition at 1 µM amounted to 8.77% and the inhibition at 10 µM came to 25.9%. Moreover, in the experiment on TNF-α, the inhibition at 1 µM was 9.43% and the inhibition at 10 µM is 15.6%.

`CCN1C(=O)OCC1Cc1ccc(Oc2ccc(/C=C3\C(=O)Nc4ccccc43)cc2C(F)(F)F)cc1` (centres unmarked) [Example 15]: the inhibition at 1 µM with IL-1β came out at 1.78%; in the experiment on TNF-α, 24.5%; with IL-6, 1.16%; against DPP IV, 7.07%. Further, the inhibition at 10 µM in the experiment with TNF-α was 15.9%; at DPP IV, 9.86%.

Turning to `COc1cc(CC2C(=O)Nc3ccccc32)ccc1Oc1ccc(CC2COC(=O)N2C)cc1` (centres unmarked) [Example 67], the results for the inhibition at 1 µM in the experiment on IL-1β and in the experiment with TNF-α were 12.1% and 20.9%, respectively. Besides, the inhibition at 10 µM with IL-1β is 20.9%; in the experiment with TNF-α, 34%; in the experiment on IL-6, 2.12%.

In the case of `CCN1C(=O)OCC1Cc1ccc(Oc2ccc(/C=C3\C(=O)Nc4ccccc43)cc2)cc1` (centres unmarked) [Example 5], in the experiment with TNF-α, the inhibition at 1 µM was 1.72% and the inhibition at 10 µM was 9.77%.

With `CCN1C(=O)OCC1Cc1ccc(Oc2ccc(/C=C3/SC(=S)NC3=O)cc2C(F)(F)F)cc1` (centres unmarked) [Example 59], on DPP IV, the inhibition at 1 µM was -1.26% and the inhibition at 10 µM is 12.4%.

Regarding `CN1C(=O)OCC1Cc1ccc(Oc2ccc(/C=C3/SC(=S)NC3=O)cc2)cc1` (centres unmarked) [Example 34, 3-methyl-4-(4-{4-[(4-oxo-2-thioxo-1,3-thiazolidin-5-ylidene)methyl]phenoxy}benzyl)-1,3-oxazolidin-2-one], the “% Reduction Cholesterol” value in experiment [1] was “NR”. In addition, in experiment [1] (read-out: % Reduction Glucose), the inhibition in vivo at 50 mg/kg is 50.9%. Also, the inhibition in vivo at 50 mg/kg in experiment [1] (setting [2]) is 73.4%. Moreover, at DPP IV, the inhibition at 1 µM is 9.52% and the inhibition at 10 µM was -0.7%.

As to `CN1C(=O)OCC1Cc1ccc(Oc2ccc(/C=C3/SC(=S)NC3=O)cc2Cl)cc1` (centres unmarked) [Example 40, 4-(4-{2-chloro-4-[(4-oxo-2-thioxo-1,3-thiazolidin-5-ylidene)methyl]phenoxy}benzyl)-3-methyl-1,3-oxazolidin-2-one], in experiment [1], the “% Reduction Cholesterol” value is “NR”. Also, the inhibition in vivo at 50 mg/kg in experiment [1] (read-out: % Reduction Glucose) turned out to be 34.2%; in experiment [1] (setting [2]) it was 17.8%.

For `CCN1C(=O)OCC1Cc1ccc(Oc2ccc(/C=C3/SC(=S)N(CC(=O)O)C3=O)cc2)cc1` (centres unmarked) [Example 37], in experiment [1], the “% Reduction Cholesterol” value is on record as “NR” and the “% Reduction Triglycerides” value is listed as “NR”. The inhibition in vivo at 50 mg/kg in experiment [1] (read-out: % Reduction Glucose) came out at 22.5%.

`CN1C(=O)OCC1Cc1ccc(Oc2ccc(/C=C3\C(=O)Nc4ccccc43)cc2)cc1` (centres unmarked) [Example 4]: in the experiment with IL-1β, the inhibition at 1 µM was 1.55% and the inhibition at 10 µM was 10.7%. In addition, in the experiment with TNF-α, the inhibition at 1 µM was 8.77% and the inhibition at 10 µM worked out at 2.85%.

Take `CN1C(=O)OCC1Cc1ccc(Oc2ccc(/C=C3/SC(=S)NC3=O)cc2C(F)(F)F)cc1` (centres unmarked) [Example 55]: on DPP IV, the inhibition at 1 µM is 1.99% and the inhibition at 10 µM is 9.92%.

For `CCN1C(=O)OCC1Cc1ccc(Oc2ccc(/C=C3\C(=O)Nc4ccccc43)cc2Cl)cc1` (centres unmarked) [Example 10], in the experiment with TNF-α, the inhibition at 1 µM was determined as 20.2% and the inhibition at 10 µM worked out at 35%. Moreover, in the experiment with IL-6, the inhibition at 1 µM amounted to 15.5% and the inhibition at 10 µM was 7.18%.

With `CCN1C(=O)OCC1Cc1ccc(Oc2ccc(CC3C(=O)Nc4ccccc43)cc2C(F)(F)F)cc1` (centres unmarked) [Example 65], in the experiment on TNF-α, the inhibition at 1 µM turned out to be 4.6% and the inhibition at 10 µM was 1.67%.

For the molecule `CCN1C(=O)OCC1Cc1ccc(Oc2ccc(CC3C(=O)Nc4ccccc43)cc2F)cc1` (centres unmarked) [Example 66], the inhibition at 1 µM with IL-6 came to 3.58%.

For `CCN1C(=O)OCC1Cc1ccc(Oc2ccc(CC3C(=O)Nc4ccccc43)cc2OC)cc1` (centres unmarked) [Example 69], the inhibition at 1 µM is 33.3% in the experiment with IL-1β, 35.2% with TNF-α and 2.98% with IL-6. Besides, the inhibition at 10 µM in the experiment on IL-1β was 39.7%; in the experiment on TNF-α it was 50.6%; in the experiment on IL-6 it was 12.4%. In addition, in the experiment on IL-1β (setting [3]), the “inhibition of IL-1β production” value is reported as “can inhibit the production”. In the experiment with TNF-α (setting [3]), the “inhibition of TNF-α production” value is reported as “can inhibit the production”. Besides, the “inhibition of IL-6 production” value with IL-6 (setting [3]) is given as “can inhibit the production”.

In the case of `CN1C(=O)OCC1Cc1ccc(Oc2ccc(/C=C3/SC(=S)N(CC(=O)O)C3=O)cc2Cl)cc1` (centres unmarked) [Example 41, [4-oxo-5-(3-chloro-4-{4-[(3-methyl-2-oxo-1,3-oxazolidin-4-yl)methyl]phenoxy}benzylidene)-2-thioxo-1,3-thiazolidin-3-yl]acetic acid], in experiment [1], the “% Reduction Cholesterol” value is “NR” and the “% Reduction Triglycerides” value was “NR”. In addition, the inhibition in vivo at 50 mg/kg in experiment [1] (read-out: % Reduction Glucose) is 66.5%.

For `CN1C(=O)OCC1Cc1ccc(Oc2ccc(CC3C(=O)Nc4ccccc43)cc2C(F)(F)F)cc1` (centres unmarked) [Example 75], on DPP IV, the inhibition at 1 µM came to 2.44% and the inhibition at 10 µM was found to be 7.64%.

As to `CN1C(=O)OCC1Cc1ccc(Oc2ccc(CC3SC(=O)NC3=O)cc2C(F)(F)F)cc1` (centres unmarked) [Example 71, 4-{4-[(3-methyl-2-oxo-1,3-oxazolidin-4-yl)methyl]phenoxy)-3-(trifluoromethylbenzyl]-1,3-thiazolidine-2,4-dione], in experiment [1], the “% Reduction Cholesterol” value was “NR” and the “% Reduction Triglycerides” value is listed as “NR”. Moreover, the inhibition in vivo at 50 mg/kg in experiment [1] (read-out: % Reduction Glucose) turned out to be 49.9%.

As for `CCN1C(=O)OCC1Cc1ccc(Oc2ccc(CC3SC(=O)NC3=O)cc2)cc1` (centres unmarked) [Example 62, 5-(4-{4-[(3-ethyl-2-oxo-1,3-oxazolidin-4-yl)methyl]phenoxy}benzyl)-1,3-thiazolidine-2,4-dione], the “% Reduction Cholesterol” value in experiment [1] is “NR”. The inhibition in vivo at 50 mg/kg amounted to 36.2% in experiment [1] (read-out: % Reduction Glucose) and 24.7% in experiment [1] (setting [2]).

For the molecule `CN1C(=O)OCC1Cc1ccc(Oc2ccc(/C=C3\C(=O)Nc4ccccc43)c(Cl)c2)cc1` (centres unmarked) [Example 16], in the experiment with TNF-α, the inhibition at 1 µM was 6.6%.

For the molecule `CN1C(=O)OCC1Cc1ccc(Oc2ccc(/C=C3/C(=O)Nc4ccccc43)cc2F)cc1` (centres unmarked) [Example 7], in the experiment on TNF-α, the inhibition at 1 µM was 0.93% and the inhibition at 10 µM is 6.43%. For the same molecule, on DPP IV, the inhibition at 1 µM worked out at 3.55% and the inhibition at 10 µM was found to be 7.75%.

Take `CCN1C(=O)OCC1Cc1ccc(Oc2ccc(/C=C3\C(=O)Nc4ccccc43)cc2F)cc1` (centres unmarked) [Example 12]: in the experiment on TNF-α, the inhibition at 1 µM was 13.6% and the inhibition at 10 µM worked out at 28.1%. For the same molecule, in the experiment with IL-6, the inhibition at 1 µM turned out to be 2.67% and the inhibition at 10 µM was found to be 1.65%.

For `CCN1C(=O)OCC1Cc1ccc(Oc2ccc(/C=C3/SC(=O)NC3=O)cc2)cc1` (centres unmarked) [Example 3, 5-(4-{4-[(3-ethyl-2-oxo-1,3-oxazolidin-4-yl)methyl]phenoxy}benzylidene)-1,3-thiazolidine-2,4-dione], in experiment [1], the “% Reduction Cholesterol” value is given as “NR” and the “% Reduction Glucose” value is reported as “NR”. The inhibition in vivo at 50 mg/kg in experiment [1] (setting [2]) turned out to be 3.8%.

`CN1C(=O)OCC1Cc1ccc(Oc2ccc(CC3SC(=S)N(CC(=O)O)C3=O)cc2C(F)(F)F)cc1` (centres unmarked) [Example 86]: in experiment [1], the “% Reduction Cholesterol” value is reported as “NR”. Further, the inhibition in vivo at 50 mg/kg in experiment [1] (read-out: % Reduction Glucose) worked out at 48.8%; in experiment [1] (setting [2]) it was 15.5%.

Turning to `O=C1NC(Cc2ccc(Oc3ccc(/C=C4/SC(=O)NC4=O)cc3F)cc2)CO1` (centres unmarked) [Example 31, 5-(3-fluoro-4-{4-[(2-oxo-1,3-oxazolidin-4-yl)methyl]phenoxy}benzylidene)-1,3-thiazolidine-2,4-dione], at DPP IV, the inhibition at 1 µM amounted to 4.77% and the inhibition at 10 µM was 7.25%.
